Results on three compounds are retold here after paper PMC12797228 (ACS Infectious Diseases, 2025).

For series [1], the target named is T1, wild-type B. anthracis gyrase (Bacillus anthracis, UniProt A0A6H3A7B1+Q9X3Y6). In words: biochemical. To be noted: IC50, inhibition of DNA supercoiling.
Series [2] has as its target T2, wild-type B. anthracis topoisomerase IV (Bacillus anthracis, UniProt A0A6H3AG07+A0AAC8SCF4). In words: biochemical. To be noted: IC50, inhibition of DNA decatenation.
The test system of series [3] is B. anthracis (Ames strain). Set-up: species or system BALB/c mice. To be noted: mouse, in vivo.
Series [4] has as its system 30-strain panel of B. anthracis. In words: microbe, parasite or virus in culture. The series is classed as cell-based, Bacillus anthracis. To be noted: for MIC50 / MIC90: Bacillus anthracis.
Series [5] concerns the target T1, wild-type B. anthracis gyrase. In words: biochemical. The settings on record: EC50 (concentration that induces 50% maximal DNA cleavage).
The test system of the next series is B. anthracis. The settings on record: rabbit, in vivo; cited from earlier work.
The target in series [6] is T2, wild-type B. anthracis topoisomerase IV. Nature of the series: biochemical. To be noted: EC50, DNA cleavage.
For series [7] the following is noted: female, BALB/c, mouse, in vivo.
For series [8] the following is noted: mouse, in vivo, po, 100 mg/kg.
A further series in a line: in vivo. To be noted: female, BALB/c, mouse.
A further series can be described thus: in vitro. To be noted: plasma.

Each structure is given as a SMILES string. In brackets after ≈: the same amount, converted by molar mass. Several values for one entry are separate records, joined by “and”; a condition that tells them apart may be missing. Identical values can stand only once. Like-named read-outs stand apart in the source and are kept apart here. Where only a bound is given, the exact number is not on record here.

T1 sequence (A0A6H3A7B1 1-823): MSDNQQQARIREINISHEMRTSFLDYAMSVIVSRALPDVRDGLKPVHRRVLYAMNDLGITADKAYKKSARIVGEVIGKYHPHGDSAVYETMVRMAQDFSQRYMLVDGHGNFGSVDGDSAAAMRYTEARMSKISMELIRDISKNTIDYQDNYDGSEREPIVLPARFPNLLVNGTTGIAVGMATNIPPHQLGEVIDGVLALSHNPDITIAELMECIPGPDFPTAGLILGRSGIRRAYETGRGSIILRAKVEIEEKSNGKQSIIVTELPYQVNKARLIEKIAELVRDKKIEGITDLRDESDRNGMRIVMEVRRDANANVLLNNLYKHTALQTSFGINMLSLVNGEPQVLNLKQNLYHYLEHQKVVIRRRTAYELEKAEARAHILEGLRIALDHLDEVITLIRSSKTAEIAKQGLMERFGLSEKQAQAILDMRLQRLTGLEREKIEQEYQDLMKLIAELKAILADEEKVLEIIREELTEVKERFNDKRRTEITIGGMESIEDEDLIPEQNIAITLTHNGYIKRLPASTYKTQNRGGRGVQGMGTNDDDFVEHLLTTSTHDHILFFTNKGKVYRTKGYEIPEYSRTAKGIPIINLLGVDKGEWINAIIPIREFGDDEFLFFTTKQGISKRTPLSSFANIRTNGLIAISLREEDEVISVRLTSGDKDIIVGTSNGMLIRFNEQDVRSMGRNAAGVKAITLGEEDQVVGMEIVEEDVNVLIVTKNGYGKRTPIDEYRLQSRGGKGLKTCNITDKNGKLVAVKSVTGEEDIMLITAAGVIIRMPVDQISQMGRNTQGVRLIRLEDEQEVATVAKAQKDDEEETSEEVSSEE
T1 sequence (Q9X3Y6 whole entry): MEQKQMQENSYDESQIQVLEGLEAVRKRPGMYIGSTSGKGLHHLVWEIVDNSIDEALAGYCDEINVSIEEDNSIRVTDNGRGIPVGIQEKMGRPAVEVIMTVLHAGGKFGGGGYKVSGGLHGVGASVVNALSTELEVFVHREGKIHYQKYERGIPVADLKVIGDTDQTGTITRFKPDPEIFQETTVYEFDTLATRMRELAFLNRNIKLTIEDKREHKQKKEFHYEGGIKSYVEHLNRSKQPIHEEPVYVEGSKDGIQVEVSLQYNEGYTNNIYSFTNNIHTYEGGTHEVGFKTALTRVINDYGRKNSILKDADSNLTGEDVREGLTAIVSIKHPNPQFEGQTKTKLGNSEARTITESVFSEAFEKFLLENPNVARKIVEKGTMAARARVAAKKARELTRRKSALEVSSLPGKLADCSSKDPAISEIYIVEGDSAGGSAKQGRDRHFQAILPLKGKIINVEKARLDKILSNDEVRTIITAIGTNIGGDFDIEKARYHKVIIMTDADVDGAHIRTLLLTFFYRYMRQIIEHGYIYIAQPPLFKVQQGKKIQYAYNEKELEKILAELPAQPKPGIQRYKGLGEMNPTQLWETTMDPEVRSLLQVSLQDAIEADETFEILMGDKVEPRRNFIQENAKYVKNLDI
T2 sequence (A0A6H3AG07 1-807): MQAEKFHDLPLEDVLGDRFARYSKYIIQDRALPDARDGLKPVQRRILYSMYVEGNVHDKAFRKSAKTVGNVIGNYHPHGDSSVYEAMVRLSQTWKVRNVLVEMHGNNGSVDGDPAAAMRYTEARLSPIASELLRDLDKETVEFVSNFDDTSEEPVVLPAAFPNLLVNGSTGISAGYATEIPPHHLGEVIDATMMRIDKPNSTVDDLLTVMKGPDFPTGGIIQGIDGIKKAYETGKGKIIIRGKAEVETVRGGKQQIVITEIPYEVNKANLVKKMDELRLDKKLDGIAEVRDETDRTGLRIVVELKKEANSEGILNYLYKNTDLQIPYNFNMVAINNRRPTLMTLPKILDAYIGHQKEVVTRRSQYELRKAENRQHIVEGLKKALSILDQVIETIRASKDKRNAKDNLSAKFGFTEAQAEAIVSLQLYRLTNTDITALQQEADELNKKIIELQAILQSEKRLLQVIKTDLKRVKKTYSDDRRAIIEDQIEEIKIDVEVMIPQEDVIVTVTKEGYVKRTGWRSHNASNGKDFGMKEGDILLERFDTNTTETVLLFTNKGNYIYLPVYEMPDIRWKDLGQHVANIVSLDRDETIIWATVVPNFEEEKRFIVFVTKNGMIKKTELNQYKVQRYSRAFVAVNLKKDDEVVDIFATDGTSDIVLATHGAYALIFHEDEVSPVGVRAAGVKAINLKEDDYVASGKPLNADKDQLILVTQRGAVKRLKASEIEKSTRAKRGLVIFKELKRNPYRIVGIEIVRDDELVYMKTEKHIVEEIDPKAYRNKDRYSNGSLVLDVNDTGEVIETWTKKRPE
T2 sequence (A0AAC8SCF4 1-654): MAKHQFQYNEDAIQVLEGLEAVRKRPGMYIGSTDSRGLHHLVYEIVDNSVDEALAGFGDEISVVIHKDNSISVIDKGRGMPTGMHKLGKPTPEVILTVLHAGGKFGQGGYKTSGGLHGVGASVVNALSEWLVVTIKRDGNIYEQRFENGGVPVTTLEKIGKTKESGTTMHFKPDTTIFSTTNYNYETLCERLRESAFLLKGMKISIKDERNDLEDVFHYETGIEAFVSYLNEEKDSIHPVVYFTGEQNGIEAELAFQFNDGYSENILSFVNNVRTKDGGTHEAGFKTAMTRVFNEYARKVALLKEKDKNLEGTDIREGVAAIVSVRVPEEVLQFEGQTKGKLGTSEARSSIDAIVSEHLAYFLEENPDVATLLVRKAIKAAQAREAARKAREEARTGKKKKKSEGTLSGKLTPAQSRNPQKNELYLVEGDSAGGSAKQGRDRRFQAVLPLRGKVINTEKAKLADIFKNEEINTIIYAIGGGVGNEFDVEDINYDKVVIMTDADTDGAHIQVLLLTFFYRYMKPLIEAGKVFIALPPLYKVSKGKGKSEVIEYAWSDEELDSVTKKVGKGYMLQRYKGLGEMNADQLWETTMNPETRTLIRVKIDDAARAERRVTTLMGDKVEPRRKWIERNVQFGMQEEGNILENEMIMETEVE

As for `O=C(O)c1cn(C2CC2)c2cc(N3CCNCC3)c(F)cc2c1=O` [Ciprofloxacin, ciprofloxacin], the IC50 in [1] is ~118 µM and 118 µM; in [2], ~178000 nM and 178000 nM. In series [3], the “Mice that survived to study termination on day 30 (of 10)” value is 10.

For `O=c1ccc2ncc(=O)n3c2n1C[C@H]3CN1CCC(NCc2cc3c(cn2)OCCC3)CC1` [Gepotidacin, gepotidacin, reference compound], in series [4], the “Range of MIC values” lay within 0.12 to 8 µg/mL, the MIC50 was 0.5 µg/mL (≈ 1.11 µM) and the MIC90 came to 0.5 µg/mL (≈ 1.11 µM). For the same compound, in [5], the EC50 is 800 nM and ~800 nM. Further, the half-maximal inhibitory concentration (IC50) in series [1] is ~23.2 µM and 23.2 µM. Further, the IC50 in [2] was ~200 nM and 200 nM. Besides, in the series with B. anthracis, the “Rabbits that survived for at least 30 days” value is listed as “Ten out of 11”.

With `COc1ccc2ncc(F)c(C[C@H](O)[C@H]3OC[C@H](NCc4cnc5c(n4)NC(=O)CO5)CO3)c2n1` [OSUAB-0284, 6-(((trans-2-((S)-2-(3-fluoro-6-methoxy-1,5-naphthyridin-4-yl)-1-hydroxyethyl)-1,3-dioxan-5-yl)amino)methyl)-2H-pyrazino[2,3-b][1,4]oxazin-3(4H)-one], in series [4], the “Range of MIC values” is not above 0.03 to 4 µg/mL, the MIC50 amounted to 0.06 µg/mL (≈ 0.123 µM) and the MIC90 amounted to 0.25 µg/mL (≈ 0.514 µM). Moreover, the EC50 in series [5] is 700 nM and ~700 nM. For the same compound, in series [1], the IC50 is ~6.3 µM and 6.3 µM. Moreover, in series [6], the EC50 was 40 nM and ~40 nM. Further, the IC50 in [2] was ~100 nM and 100 nM. Besides, in series [3], the “Lung total bacterial burden and spore counts compared with the ciprofloxacin group” value is recorded as “No significant differences”; the Survival is 100% and 90% and 90–100%. In addition, the “dose-corrected exposure, higher vs lower dose group” value in [7] stood at 1.5 fold. In [7] (iv, 10 mg/kg), the “Lung AUC0-last” value was 4,830 ng*h/mL and the “Lung AUCinf” value is 5,033 ng*h/mL. For the same compound, in series [7] (po, 10 mg/kg), the “Lung AUC0-last” value was 3,314 ng*h/mL and the “Lung AUCinf” value is listed as 3,615 ng*h/mL. Further, in series [7] (po, 50 mg/kg), the “Lung AUC0-last” value is listed as 37,227 ng*h/mL and the “Lung AUCinf” value is recorded as 44,292 ng*h/mL. Moreover, the “Adverse events or cage-side observations” value in [8] is “No adverse events or cage-side observations were noted”. In the series “in vivo”, this compound gave a Kp of 0.36 to 0.53 and a half-life of 156 min. Further, the bioavailability in the series “in vivo” (10 mg/kg) was found to be 80.6%. For the same compound, in the series “in vivo” (iv, 10 mg/kg), the AUC(0-inf) is 11400 ng·h/mL, the exposure AUC(0-t) is 10800 ng·h/mL, the peak concentration (Cmax) turned out to be 17600 ng/mL and the Tmax was 5 min. In “in vivo” (iv, 10 mg/kg), this compound gave a half-life of 156 min. In “in vivo” (po, 10 mg/kg), the area under the curve AUC(0-inf) was found to be 9160 ng·h/mL, the AUC(0-t) came out at 8470 ng·h/mL, the Cmax is 6280 ng/mL and the Tmax was 15 min. The half-life in “in vivo” (po, 10 mg/kg) was 156 min. Further, in “in vivo” (po, 50 mg/kg), the area under the curve AUC(0-inf) was found to be 70200 ng·h/mL, the exposure AUC(0-t) was 63000 ng·h/mL, the Cmax was 50300 ng/mL and the Tmax was 15 min. For the same compound, the half-life in “in vivo” (po, 50 mg/kg) is 156 min. The fraction unbound in “in vitro” was 0.31.

Broadly, the IC50 is the point on the concentration scale where inhibition reaches its midpoint. Read a high IC50 as weaker potency in that assay. As a reminder, the EC50 is the midpoint of the concentration-response curve. A low value points to a more potent agent. In general, half-life refers to the time needed for the level to fall by half in the phase considered. A lower half-life goes with rapid decline. What is called bioavailability is the share of a dose that reaches the circulation, judged against a reference dose that is usually intravenous. A higher bioavailability goes with good availability. Usually AUC(0-inf) stands for total exposure, with the tail of the curve extrapolated. The low end stands for low exposure, the high end for high exposure. One may read the AUC(0-t) as exposure summed from dosing to a finite time, without extrapolation to infinity. As a reminder, the Cmax is the highest concentration seen after dosing. By Tmax is commonly meant the time at which the peak concentration occurs. In general, fraction unbound refers to free concentration divided by total concentration. Lower therefore signals little free substance.
